Here are results for 32 compounds from patent US20240101546A1, “HETEROARYL-ACETYLENES, PHARMACEUTICAL COMPOSITIONS THEREOF, AND THEIR THERAPEUTIC APPLICATIONS” (Eubulus Biotherapeutics Inc., priority 2020, published 2024).

SMILES strings stand for the structures.

The assay has as its system hepatocellular carcinoma cell line Hub-7. Put plainly: Cell proliferation assay, Hub-7 (CELL-TITER GLO). The class given is cell-based. Particulars: Hub-7 cells, 24 h incubation, cell viability by CELL-TITER GLO, top concentration 10 μM; read-out: EC50, Inhibition of Hub-7 Cell Proliferation. A digest of the protocol:
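Hub-7 cells, 4,000 per well, seeded overnight, then exposed 24 h to compound from 10 μM top in 3-fold serial dilution. Viability read by CELL-TITER GLO luminescence; EC50 derived and binned into potency categories.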
As to `C#Cc1nc(NC(=O)NCc2ccc(-c3cccc4c3S(=O)(=O)CC4=O)cc2)cs1` [Compound A3, 1-(4-(1,1-Dioxido-3-oxo-2,3-dihydrobenzo[b]thiophen-7-yl)benzyl)-3-(2-ethynyl-thiazol-4-yl)urea], the EC50 lay in the range of 1 to 5 µM. The same measure for `C#Cc1nc(C(=O)NCCc2cccc(-c3cccc4c3ccn4C)c2)cs1` [Compound C35, 2-Ethynyl-N-(3-(1-methyl-1H-indol-4-yl)phenethyl)thiazole-4-carboxamide]: 0.2 to 1 µM; for `C#Cc1nc(C(=O)NCc2cccc(Cl)c2)cs1` [Compound C125, N-(3-Chlorobenzyl)-2-ethynylthiazole-4-carboxamide]: at most 0.2 µM. To `C#Cc1nc(C(=O)N2CCC(c3ccc(-c4cccc5[nH]ncc45)cc3)CC2)cs1` [Compound D21, (4-(4-(1H-Indazol-4-yl)phenyl)piperidin-1-yl)(2-ethynylthiazol-4-yl)methanone] belongs at most 0.2 µM. For `C#Cc1nc(NC(=O)c2ccc3ccccc3n2)cs1` [Compound E10, N-(2-Ethynylthiazol-4-yl)quinoline-2-carboxamide], the EC50 was 1 to 5 µM. `C#Cc1ncc(C(=O)NCc2ccccc2)s1` [Compound C141, N-Benzyl-2-ethynylthiazole-5-carboxamide]: the EC50 fell in the range of 1 to 5 µM. To `C#Cc1nc(C(=O)N2CCN(c3ccc(-c4cccc5[nH]ncc45)cc3)CC2)cs1` [Compound D25, (4-(4-(1H-Indazol-4-yl)phenyl)piperazin-1-yl)(2-ethynylthiazol-4-yl)methanone] belongs at most 0.2 µM; to `C#Cc1nc(C(=O)NCc2cnn(C)c2)cs1` [Compound C120, 2-Ethynyl-N-((1-methyl-1H-pyrazol-4-yl)methyl)thiazole-4-carboxamide], above 5 µM. `C#Cc1nc(C(=O)NCCc2ccc(-c3cccc4nccnc34)cc2)cs1` [Compound C11, 2-Ethynyl-N-(4-(quinoxalin-5-yl)phenethyl)thiazole-4-carboxamide]: the EC50 is 0.2 to 1 µM. To `C#Cc1nc(C(=O)N2CCc3ccccc3C2)cs1` [Compound D30, (3,4-Dihydroisoquinolin-2(1H)-yl)(2-ethynylthiazol-4-yl)methanone] belongs 0.2 to 1 µM; to `C#Cc1nc(C(=O)NCCc2cccc(-c3cscn3)c2)cs1` [Compound E7, 2-Ethynyl-N-(3-(thiazol-4-yl)phenethyl)thiazole-4-carboxamide], 1 to 5 µM; to `C#Cc1nc(C(=O)NCc2ccccn2)cs1` [Compound C126, 2-Ethynyl-N-(pyridin-2-ylmethyl)thiazole-4-carboxamide], 1 to 5 µM. To `C#Cc1nc(C(=O)NCCc2cccc(-c3cccc4c3CC(=O)N4C)c2)cs1` [Compound C26, 2-Ethynyl-N-(3-(1-methyl-2-oxoindolin-4-yl)phenethyl)thiazole-4-carboxamide] belongs 1 to 5 µM; to `C#Cc1nc(C(=O)NCCc2ccc(-c3ccccc3S(=O)(=O)NC)cc2)cs1` [Compound C20, 2-Ethynyl-N-(2-(2′-(N-methylsulfamoyl)-[1,1′-biphenyl]-4-yl)ethyl)thiazole-4-carboxamide], 0.2 to 1 µM; to `C#Cc1nc(C(=O)NCCc2ccc(-c3cccc4c3CN(C)C4=O)cc2)cs1` [Compound C22, 2-Ethynyl-N-(4-(2-methyl-1-oxoisoindolin-4-yl)phenethyl)thiazole-4-carboxamide], 0.2 to 1 µM.

Take `C#Cc1nc(C(=O)NCCc2ccc(-c3cc(C(N)=O)cc4ncsc34)cc2)cs1` [Compound C8, 7-(4-(2-(2-Ethynylthiazole-4-carboxamido)ethyl)phenyl)benzo[d]thiazole-5-carboxamide]: the EC50 lay within 0.2 to 1 µM.

For the compound `C#Cc1nc(C(=O)NCc2ccccc2CO)cs1` [Compound C70, 2-Ethynyl-N-(2-(hydroxymethyl)benzyl)thiazole-4-carboxamide], the EC50 was in the range of 1 to 5 µM.

With `C#Cc1nc(C(=O)NCCc2ccc(NC(C)=O)cc2)cs1` [Compound C88, N-(4-Acetamidophenethyl)-2-ethynylthiazole-4-carboxamide], the EC50 is 1 to 5 µM. For `C#Cc1nc(C(=O)N2CCN(c3ccc(-c4cccc5ncsc45)cn3)CC2)cs1` [Compound D10, (4-(5-(Benzo[d]thiazol-7-yl)pyridin-2-yl)piperazin-1-yl)(2-ethynylthiazol-4-yl)-methanone], the EC50 is at most 0.2 µM. As for `C#Cc1nc(NC(=O)NCc2ccc(-c3cccc4c3S(=O)(=O)CC4O)cc2)cs1` (centres unmarked) [Compound A2, 1-(2-Ethynylthiazol-4-yl)-3-(4-(3-hydroxy-1,1-dioxido-2,3-dihydrobenzo[b]-thiophen-7-yl)benzyl)urea], the EC50 fell in the range of 1 to 5 µM. To `C#Cc1nc(C(=O)NCc2ccc(C#N)cc2)cs1` [Compound C104, N-(4-Cyanobenzyl)-2-ethynylthiazole-4-carboxamide] belongs 0.2 to 1 µM; to `C#Cc1nc(C(=O)N2CCCC(C(=O)OC)C2)cs1` (centres unmarked) [Compound D36, Methyl 1-(2-ethynylthiazole-4-carbonyl)piperidine-3-carboxylate], above 5 µM.

Turning to `C#Cc1nc(C(=O)NCCc2cccc(-c3cncs3)c2)cs1` [Compound E6, 2-Ethynyl-N-(3-(thiazol-5-yl)phenethyl)thiazole-4-carboxamide], the EC50 lay in the range of 0.2 to 1 µM.

Turning to `C#Cc1nc(C(=O)N2CCC(O)CC2)cs1` [Compound D31, (2-Ethynylthiazol-4-yl)(4-hydroxypiperidin-1-yl)methanone], the EC50 was above 5 µM. For `C#Cc1nc(NC(=O)NCc2ccc(-c3cccc4c3S(=O)(=O)C=C4)cc2)cs1` [Compound A1, 1-(4-(1,1-Dioxidobenzo[b]thiophen-7-yl)benzyl)-3-(2-ethynylthiazol-4-yl)urea], the EC50 was in the range of 0.2 to 1 µM. On to `C#Cc1nc(C(=O)N2CCC(c3ccc(-c4cccc5c4cnn5C)cc3)CC2)cs1` [Compound D20, (2-Ethynylthiazol-4-yl)(4-(4-(1-methyl-1H-indazol-4-yl)phenyl)piperidin-1-yl)-methanone], for which the EC50 was at most 0.2 µM. For the compound `C#Cc1nc(NC(=O)NCc2ccc(-c3cc4ncsc4c4c3CNC4=O)cc2)cs1` [Compound A4, 1-(2-Ethynylthiazol-4-yl)-3-(4-(8-oxo-7,8-dihydro-6H-thiazolo[5,4-e]isoindol-5-yl)benzyl)urea], the EC50 lay within 0.2 to 1 µM. For the compound `C#Cc1nc(NC(=O)NCc2ccc(-c3cc(C(N)=O)cc4c3cnn4C)cc2)cs1` [Compound A20, 4-(4-((3-(2-Ethynylthiazol-4-yl)ureido)methyl)phenyl)-1-methyl-1H-indazole-6-carboxamide], the EC50 was 1 to 5 µM. To `C#Cc1nc(C(=O)NCc2ccccc2)cs1` [Compound C148, N-Benzyl-2-ethynylthiazole-4-carboxamide] belongs 1 to 5 µM. Take `C#Cc1nc(C(=O)N2CCC(c3ccc(C#N)cc3)CC2)cs1` [Compound D24, 4-(1-(2-Ethynylthiazole-4-carbonyl)piperidin-4-yl)benzonitrile]: the EC50 was at most 0.2 µM. In the case of `C#Cc1nc(C(=O)NCCc2ccc(-c3cscn3)cc2)cs1` [Compound C53, 2-Ethynyl-N-(4-(thiazol-4-yl)phenethyl)thiazole-4-carboxamide], the EC50 fell in the range of 0.2 to 1 µM.

In the case of `C#Cc1nc(C(=O)NCc2cccc([N+](=O)[O-])c2)cs1` [Compound C107, 2-Ethynyl-N-(3-nitrobenzyl)thiazole-4-carboxamide], the EC50 is 0.2 to 1 µM.
